Consider 4 compounds from PMC4745082, “A Novel PET Imaging Probe for the Detection and Monitoring of Translocator Protein 18 kDa Expression in Pathological Disorders” (Scientific Reports, 2016).

Assay [1] has as its target T1, TSPO (Rattus norvegicus, UniProt P16257). The experiment in a line: biochemical.
A further assay addresses CBR. The experiment in a line: In vitro CBR binding, displacement of [3H]flunitrazepam. On the set-up: species or system rat. To be noted: for Ki: displacement of [3H]flunitrazepam from rat cerebrocortical samples, mean of three experiments in duplicate. As to the method: Binding affinity and selectivity to the 18-kDa translocator protein TSPO and to CBR were assessed using in vitro receptor binding assays. These experiments were carried out as described by Denora et al[34].
A general note: Loss of bound radioactivity is the signal in a displacement assay; it reports binding, not function.

The target of assay [2] is T1, TSPO. Conditions: ratio of Ki values, higher affinity of CB251.
Assay [3] concerns the target TSPO. On the set-up: method as in PMID 19948230. Conditions: literature value ref 25; cited from earlier work.

The structures appear in SMILES notation.

T1 sequence (P16257 whole entry): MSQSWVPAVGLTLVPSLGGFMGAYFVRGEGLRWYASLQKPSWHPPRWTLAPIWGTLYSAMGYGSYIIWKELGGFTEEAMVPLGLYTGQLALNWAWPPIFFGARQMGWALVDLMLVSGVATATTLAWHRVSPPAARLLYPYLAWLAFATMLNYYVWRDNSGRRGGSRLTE

Consider `CCCN(CCC)C(=O)Cc1c(-c2ccc(OCCF)cc2)nc2c(Cl)cc(Cl)cn12` [CB251, 2-(2-(4-(2-Fluoroethoxy)phenyl)-6,8-dichloroimidazo[1,2-a]pyridin-3-yl)-N,N-dipropylacetamide], for which the Ki (as a rule, the equilibrium dissociation constant of an inhibitor or competing ligand from its target) at TSPO [1] is 0.27 ± 0.09 nM; on CBR it was over 100000 nM. The “binding to CBR” value in the assay on CBR (result in words) was “below the detection limit”. Further, at TSPO [2], the “TSPO binding affinity relative to PK 11195” value is on record as 5 times. Moreover, the “TSPO binding affinity relative to PBR28” value at TSPO [2] (PBR28 Ki from ref 25) came to 22 times.
In the case of `COc1ccccc1CN(C(C)=O)c1cnccc1Oc1ccccc1` [PBR28], the Ki on TSPO [3] was 6.1 ± 6.4 nM.
At CBR, `CCC(C)N(C)C(=O)c1cc2ccccc2c(-c2ccccc2Cl)n1` (centres unmarked) [PK 11195, reference compound] had a Ki of over 100000 nM.
`CN1C(=O)CN=C(c2ccccc2F)c2cc([N+](=O)[O-])ccc21` [flunitrazepam, reference compound] displayed a Ki at CBR of 5.11 ± 0.87 nM.
